Reference: patent publication US20040049799A1, “Method for screening agents capable of treating obesity” (priority 2000, published 2004)

System: messenger for the SPARC protein in the adipose tissue
Assay: expression of the messenger for the SPARC protein in adipose tissue after insulin injection
Type: in vivo
Settings: injected into mice

Substance: insulin
- expression of the messenger for the SPARC protein in the adipose tissue: increases the expression of the messenger for the SPARC protein
